Reference: patent US20250186379A1, “METHODS AND AGENTS FOR DECREASING INSULIN RESISTANCE” (Whitehead Institute for Biomedical Research, priority 2021, published 2025)
“Also recorded” adds a separate entry of the source. Like-named read-outs stand apart in the source and are kept apart here.

Legend:
[1] = system: HepG2 cells; test: Stable isotope tracing for lipogenesis in HepG2 cells; assay type: cell-based, human
Method: To wash out insulin, cells were washed with EMEM (ATCC 30-2003) seven times, including: three quick washes, three 5-minute washes and a long 20 minute-wash in EMEM at 37° C. Cells were then cultured in EMEM supplemented with 1 mM Sodium acetate-^13C2(Sigma Aldrich, 282014) and with either 0 nM insulin or 1 nM insulin for 36 hours. Media was replenished after 24 hours. Cells were then processed for metabolite isolation (see below).
Metabolite isolation from HepG2 cells: cells were washed in ice-cold PBS (Life Technologies, AM9625), 500 μl of cold 80% MeOH (shared by the Metabolite Profiling Core Facility) was added per well of a 6-well plate and the plate was placed at −80° C. for at least 15 minutes. Following the −80 incubation, the plate was scraped on dry ice and the solution was transferred to a 1.5 ml tube and then vortexed for 5 minutes. To remove cellular debris, the samples were centrifuged at maximum speed for 10 minutes at 4° C. and the supernatant was transferred to a new 1.5 mL tube on dry ice. To remove solvents, the samples were lyophilized using Refrigerated CentriVap Benchtop Vacuum Concentrator connected to a CentriVap-105 Cold Trap (Labconco). Metabolite pellets were re-suspended in LC-MS grade water (ThermoFisher) and vortexed for 10 minutes at 4° C. Samples were centrifuged at 16,000 g for 10 minutes at 4° C. and supernatant was moved into LC-MS vials. […]

[2] = cited from earlier work
[3] = system: insulin receptor (IR); test: Immunoblot for IR levels in HepG2 cells; assay type: cell-based, human; details: insulin resistant HepG2 cells treated with (RM) or without (R) metformin
Method: Cells were washed with ice-cold PBS and lysed in Cell Lytic M (Sigma-Aldrich C2978) supplemented with protease and phosphatase inhibitors (Sigma Aldrich, 11873580001 and 4906837001) directly on the wells. Lysates were placed into a 1.5 ml tube and mixed at 4° C. for 20 min and then centrifuged at 13,000 rpm for 15 min. Protein concentration was determined using a BCA Protein Assay Kit (Life Technologies, 23250) according to the manufacturer's instructions. Equal amounts of protein (5-50 μg per sample) were separated on 10% or 12% Bis-Tris gels in 5% XT MOPS running buffer (Bio-Rad Laboratories, 1610788) at 100V until dye front reached the end of the gel. Protein was then transferred to a 0.45 μM PVDF membrane (Millipore, IPVH00010) in ice cold transfer buffer (25 mM Tris, 192 mM glycine, 20% methanol) at 300 mA for 1 hour or 250 mA for 2 hours at 4° C. […] Immunoblot quantification was performed using the “analyze gel” tool on Fiji/ImageJ v2.1.0/153c. […]
Cells were washed with ice-cold PBS (Life Technologies, AM9625) and lysed in Cell Lytic M (Sigma Aldrich C2978) supplemented with protease and phosphatase inhibitors (Sigma Aldrich, 11873580001 and 4906837001) directly on the wells. […] Super natant was collected and protein concentration was determined using a BCA Protein Assay Kit (Life Technologies, 23250) according to the manufacturer's instructions. […]

Molecule: insulin: insulin (Sigma Aldrich, I9278-5ML) used for acute stimulation and chronic physiological or pathological exposure
- lipogenesis after insulin stimulation ([1]; cells exposed to pathologic levels (3 nM) of insulin for two days): unchanged
- lipogenesis ([1]; insulin-sensitive HepG2 cells, 1 nM insulin 36 hours): increased lipogenesis

Molecule: CN(C)C(=N)N=C(N)N [metformin, reference compound]
- concentration of metformin in the plasma of T2D patients ([2]; T2D patients (Example 1)): ~12.5 µM
- concentration of metformin in the plasma of T2D patients ([2]; T2D patients (Example 2, refs 58-60)): ~12.5 µM
- IR levels (immunoblot for IRb) [3]: not due to changes in IR levels; also recorded: does not alter IR protein level in insulin resistant cells
